The values that follow come from US12037333B2, “Pyridopyrazine and pyridotriazine inhibitors of influenza virus replication” (priority 2018, dated 2024).

A value given as a limit tells only on which side of the number the result lay.

The assay has as its system Influenza type B (cell culture adapted strain B/Lee/40, ATCC VR-1535). The experiment in a line: Influenza antiviral assay: inhibition of virus-induced cytopathic effects (CPE) in MDCK cells, XTT dye reduction. The class given is cell-based. The note with it: Influenza B virus, MDCK, 96 h, strain B/Lee/40, MDCK cells, CPE inhibition at 4 days. For orientation: Protection from cytopathic effect is a common read-out in antiviral testing.
A word on the EC50: it is the concentration giving half of the maximal effect. `O=C1c2c(O)c(=O)ccn2N(C23c4ccccc4CC2Cc2c(F)cccc23)CN1CC(F)F` (stereo not drawn) [Compound A83] had an EC50 of less than 125 nM.
With `O=C1c2c(O)c(=O)ccn2N(C23c4cccc(F)c4CC2Cc2c(F)cccc23)CN1CCc1ccccc1` (stereo not drawn) [Compound A86], the half-maximal effective concentration (EC50) was less than 125 nM.
In the case of `CC1N(CC2CC2)C(=O)c2c(O)c(=O)ccn2N1C12c3ccccc3CC1Cc1c(F)cccc12` (stereo not drawn) [Compound A129], the EC50 fell in the range of 125 to 250 nM.
